The values that follow are results of earlier work, collected in patent US20150216948A1, “CYTOCHROME P450 SUICIDE GENE SYSTEM” (priority 2012, published 2015).

The conditions of the data set: 5-day infusion regimens, patients with lung and liver cancers.

For `CC(O)CCC(=O)c1ccoc1` (stereo not shown) [4-IPO, 1-[3-furyl]-4-hydroxypentanone], the “serum concentrations, highly efficient for killing human P427 mutant CYP4B1 transgenic human cells within 72 h” value is on record as “up to 90 μM”.
